Measured values taken from patent US20090130171A1, “High concentration gentian violet containing medical devices and methods of making same” (priority 2007, published 2009).

Experiments:
[1] = Decolorization of GV: photo-oxidation with H2O2 under UV light (Protocol 1); format: physicochemical; settings: 0.1% GV in 3% H2O2 and agar stain
Experimental: (§1) Protocol 1. Photo-oxidation of GV with H2O2 • 1.1. 0.15 g GV (0.1% w/v) was dissolved in 150 ml 3% H2O2. The solution was exposed to UV light (Bio-lab hood) for 2 hours. 5 ml of solution was extracted out, in increments of 5 mins. • 1.2. 10 μl of 0.1% GV in DI water was spiked onto a plated agar plate. After staining of the agar plate (evaporation of most of the water from the spiked drop), H2O2 was pipetted onto the stain in increments of 50 μl every 5 mins for 2 hours, under the UV light. Protocol 2. Oxidation of GV by activation of H2O2 with Ag • 2.1. 10.6 mg of nano-particle Silver was mixed into 40 ml 3% H2O2 with constant stirring. 0.1% GV in water was added at various increments (10 μl-1 ml) until purple color persisted. Molar concentration ratios (GV:Ag) were calculated to determine the molar ratio where GV is no longer oxidized. • 2.2 10 μl of 0.1% GV in DI water was spiked onto a plated agar plate. After staining of the agar plate (evaporation of most of the water from the spiked drop), 0.009 g of Ag was applied to the surface of the stain and 100 μl of H2O2 was pipette onto the Ag. Protocol 3. Oxidation of GV by activation of H2O2 with Vitamin C 1% Vitamin C (w/v) was dissolved in 100 ml 3% H2O2. 7 g of TRIS buffer was also dissolved in the H2O2. 0.1% GV in water was added at increments of 10 μl until the purple color persisted.

[2] = Decolorization of GV: activation of H2O2 with nano-particle silver (Protocol 2); format: physicochemical
Experimental: as §1

[3] = format: physicochemical; settings: 0.5 %
Experimental: Compounding Conditions for stable gentian violet:
Barrel Temperatures: • Zone 1-5=170° C. • Zone 6=175° C.,
Compounding Temperature for degraded gentian violet:
Compounding was performed with Sigma Aldrich ACS grade gentian violet, lot 016K3691. HPLC analysis was performed by cutting and measuring 1 cm segments of each formulation (n=3) using the method described in Examples I and II.
The chromatograms in FIGS. 5-10 show the stable gentian violet followed by the degraded gentian violet, at 588 nm, 253 nm, and 280 nm. The degradation peaks from the 217° C. sample are evident as the new peaks at 253 and 280 nm wavelengths. The chromatogram of the low processing temperature was identical to that of the Gentian Violet raw material.

[4] = Decolorization of GV: activation of H2O2 with Vitamin C (Protocol 3); format: physicochemical; settings: 1% Vitamin C in 3% H2O2, TRIS, pH 6-7, first 10 μl of 0.1% GV
Experimental: as §1

CN(C)c1ccc(C(=C2C=CC(=[N+](C)C)C=C2)c2ccc(N(C)C)cc2)cc1 [gentian violet]
color change of GV [1]: No color change
color change of GV solution ([2]; 0.1% GV pipetted into Ag + 3% H2O2 solution): fade to a faint yellow color
color change of GV stain on agar ([2]; 10 μl 0.1% GV stain, Ag + 100 μl H2O2): turn to a faint yellow color after 10 mins
processing temperature at which extruded gentian violet degrades [3]: 217 °C
color of solution after GV addition [4]: remained purple
